Results reported in patent US10745663B2, “Methods for modulating production profiles of recombinant proteins” (ARES TRADING S.A., priority 2015, dated 2020).
Like-named read-outs stand apart in the source and are kept apart here.

How the values were obtained:
recombinant CHO cells [1] = settings: batch culture, end of the production run (after 8 days of culture); cited from earlier work
recombinant CHO cells [2] = settings: perfusion batch culture, within 6 days of treatment; cited from earlier work
[3] = tested on: CHO-S cells expressing IgG1 mAb1; assay: Fed-batch cell culture in microplates, cells expressing mAb1, with DIDS; type: cell-based, Chinese hamster
Description: (§1) Assays were performed with 2 CHO cell lines: • CHO-S cells expressing IgG1 mAb1, herein “Cells mAb1” or “mAb1 cells”. “mAb1” is a fully human monoclonal antibody directed against a soluble protein. Its isoelectric point (pI) is about 8.20-8.30. • CHO-K1 cells expressing IgG1 mAb2, herein “Cells mAb2” or “mAb2 cells”. “mAb2” is a humanised monoclonal antibody directed against a receptor found on the cell membrane. Its isoelectric point (pI) is about 9.30.
(§2) Cells expressing mAb2 were inoculated at 0.2×10^6 cells per milliliter (mL), whereas cells expressing mAb1 were inoculated at 0.3×10^6 cells per mL.
(§3) All assays were performed in fed-batch culture. The host cells were cultured in fed-batch system either in microplates (“Deep well plate”) or in Spin Tubes®, and incubated at 36.5° C., 90% relative humidity, 5% CO2 and 320 rpm shaking during 14 days.
(§4) Viable cell density and viability were measured with the Guava easyCyte® flow cytometer or with the ViCell.
(§5) Antibody titres were measured either with the fortéBIO Octet® or with Biacore C®.
(§6) Glycosylation profiles were established by capillary gel electrophoresis with laser-induced fluorescence (CGE-LIF). Dosages of aggregates and fragments were performed respectively via Size Exclusion High Performance Liquid Chromatography (SE-HPLC) and via SDS-capillary gel electrophoresis.
The host cells expressing the antibody mAb1 were cultured in presence of DIDS at concentrations ranging from 0.4 μM to 83 μM. The cell density and the viability were measured during the culture, whereas the titre was measured on day 14 (FIGS. 1A-1C). Addition of DIDS in the culture medium allowed increase of viable cell density and the titre. Specifically the concentration of 83 μM of DIDS allowed to double the cell density at day 7 (WD7) and to multiply the titre by factor 1.4 at the end of the culture process at day 14 (WD14). The viability was maintained, compared to the control, until day 12.

[4] = tested on: CHO-S cells expressing IgG1 mAb1; type: cell-based, Chinese hamster; settings: Spin tubes
Description: as §1, §2, §3, §4, §5, §6
(§7) The efficacy of DIDS was also tested in Spin tubes at concentrations around 40 μM (41 μM) and/or around 85 μM (82 μM for mAb1 and 87 μM for mAb2). These concentrations are not toxic for the host cells expressing the antibodies mAb1 and mAb2 and allowed to obtain an important increase of the cell density and the titre of the antibody mAb1 (FIG. 3). As expected for the cells expressing the antibody mAb1, the viable cell density and the specific production increase in the presence of DIDS, which allowed at DIDS concentration of 82 μM to multiply the titre by factor 1.4 comparing to the control (FIGS. 3A-3D). […] Similar results are observed for mAb2: DIDS allowed the increase of the specific productivity of the host cells expressing the antibodies mAb2 (about 20% increase at day 10), and is able to maintain the viability of the cells for about 10 days (FIGS. 3E-H).

[5] = tested on: CHO-K1 cells expressing IgG1 mAb2; type: cell-based, Chinese hamster
Description: as §1, §2, §3, §4, §5, §6, §7

[6] = in the presence of DIDS (41 μM, 82 μM)

**Q.** For `CCCC(=O)[O-].[Na+]` [sodium butyrate], which cell viability (recombinant CHO cells [1]) is on record?
**A.** The cell viability was “less than 45%”.

**Q.** And the cell viability (recombinant CHO cells [2])?
**A.** Its cell viability is 15%.

**Q.** With `O=S(=O)([O-])c1cc(N=C=S)ccc1/C=C/c1ccc(N=C=S)cc1S(=O)(=O)[O-].[Na+].[Na+]` [DIDS, 4,4′-diisothiocyanostilbene-2,2′-disulfonic acid] as the molecule, how does the cell density ([3]; 83 μM DIDS, day 7 (WD7), microplates, versus control) read?
**A.** The cell density was “double”.

**Q.** What about the “titre multiplied by factor” value ([3]; 83 μM DIDS, end of culture day 14 (WD14), microplates, versus control) of the same molecule?
**A.** Its value is 1.4.

**Q.** And the viability ([3]; compared to the control, until day 12, DIDS 0.4 μM to 83 μM)?
**A.** Its viability is “maintained”.

**Q.** And the “titre multiplied by factor” value ([4]; 82 μM DIDS, comparing to the control)?
**A.** The value was 1.4.

**Q.** What about the “toxicity for the host cells expressing mAb1” value ([4]; DIDS 41 μM and 82 μM) of the same molecule?
**A.** The value was “not toxic”.

**Q.** And the specific production [4, 6]?
**A.** Its specific production is “increase”.

**Q.** And the viable cell density [4, 6]?
**A.** Its viable cell density is “increase”.

**Q.** And the “toxicity for the host cells expressing mAb2” value ([5]; DIDS around 40 μM (41 μM) and/or 87 μM, Spin tubes)?
**A.** Its value is “not toxic”.

**Q.** And the “time for which viability of the cells is maintained” value ([5]; Spin tubes, mAb2 cells)?
**A.** The value was “about 10 days”.

**Q.** What about the “increase of the specific productivity” value ([5]; day 10, Spin tubes, mAb2 cells) of the same molecule?
**A.** The value was “about 20%”.
